Experimental findings from patent publication US20260235604A1, “A NOVEL MARKER FOR CARDIOMYOCYTES DEDIFFERENTIATION” (National University of Singapore, priority 2023, published 2026) are described below.

What all share (format): cell-based, mouse
The test system of one assay is mTORC1. Briefly: Western blot of GLUL, p-S6K1, p-4EBP1 in cultured ACMs with Asns KD. Conditions: Asn treatment of D4 Asns^KD ACMs. As to the method:
Protein extraction was carried out using 6 M urea lysis buffer with 1 mM dithiothreitol, protease inhibitor and phosphatase inhibitor. For protein extraction from cultured ACMs and purified CMs, lysis buffer was added directly to the cells, followed by vigorous pipetting. For protein extraction from mouse heart apex, a piece of apex tissue resected from each mouse heart was weighted and submerged in 500 μL lysis buffer in a 2 mL Sarstedt tube. One single stainless-steel bead (diameter 5 mm) was added to each tube containing apex tissue in lysis buffer. The TissueLyser II was assembled as per manufacturer's guidelines with pre-chilled adapters. The apex tissue was homogenised for 20 s at 30 Hz for two rounds, until no visible tissue debris was observed. Protein quantification was done using Bio-Rad Protein Assay Kit I as per manufacturer's guidelines.
The protein lysate with loading buffer was heated at 60° C. for 10 mins before loading onto a 10% SDS-polyacrylamide gel. After transfer, the blotting membrane was blocked in 5% blotting-grade blocker in TBST for 1 hour, followed by primary antibody incubation at 4° C. overnight and secondary antibody incubation at room temperature (R.T.) for 1 hour. The blot was detected by ECL substrate reaction and exposure on a ChemiDoc™ touch imaging system (BioRad). The quantification of protein expression level was performed using Fiji software. […]
On the technique in general: In western blotting, separated proteins are transferred to a membrane and probed.

The subject of assay [1] is cultured ACMs. In words: RT-qPCR of cell cycle genes in cultured ACMs. As to the method:
For freshly isolated mouse CMs, a total number of about 120,000 CMs (⅛ of total CMs) per heart were lysed by 1 mL TRIzol™ Reagent. To lyse cultured CMs, 1 mL TRIzol™ Reagent was added to each well in 12-well and 6-well cell culture plates. Total RNA extraction was performed as per manufacturer's protocol.
cDNA was synthesised with oligo dT and random primers using the qScript™ cDNA Synthesis Kit. qPCR was performed with PerfeCTa® Low Rox™ ToughMix™ (Quantabio) on a real-time PCR system. All qPCR data were normalised to the expression of housekeeping genes Gapdh and Rplp0.
(In qPCR the cycle at which signal appears reflects the starting amount.)

Assay [2] relates to cultured ACMs. In words: Propidium iodide (PI) staining of cultured ACMs (CM death). Conditions: eliminating Asn in cultured ACMs. As to the method: Purified CMs were either directly lysed for RNA and protein extraction, or pre-plated on uncoated cell culture dishes for 1 hour to further remove non-CMs before culture on laminin-coated cell culture plates. During the first two days of culturing (D0 and D1), 1 µM of blebbistatin (Sigma-Aldrich) was added as a specific myosin II inhibitor (see Kabaeva Z et al., 2008). Starting from D2, blebbistatin was removed to accelerate morphological changes of CMs. 10% FBS was included in the culture media during the whole culture procedure, and the small colonies of non-CMs were carefully scraped under a microscope and washed away daily. Images of CMs were captured using the EVOS® FL Cell Imaging System (Thermo Fisher) under different channels. PI (final concentration 1 μg/mL) and Hoechst (final concentration 1 μg/mL) was added at a to cultured ACMs, and incubated at 37° C. for 45 mins. The ACMs were immediately imaged by Nikon inverted microscope Eclipse Ti-E. For each well in the cell cultured dishes, 8 to 9 random regions were imaged. PI+ CMs were quantified using Fiji software.

For the molecule `NC(=O)C[C@H](N)C(=O)O` [Asn, asparagine], in the assay on mTORC1, the p-4EBP1 result is “restored” and the p-S6K1 result is listed as “promoted”.

B1: L-asparaginase (protein, UniProt P00805 23-348, looked up)
L-asparaginase 2: LPNITILATGGTIAGGGDSATKSNYTVGKVGVENLVNAVPQLKDIANVKGEQVVNIGSQDMNDNVWLTLAKKINTDCDKTDGFVITHGTDTMEETAYFLDLTVKCDKPVVMVGAMRPSTSMSADGPFNLYNAVVTAADKASANRGVLVVMNDTVLDGRDVTKTNTTDVATFKSVNYGPLGYIHNGKIDYQRTPARKHTSDTPFDVSKLNELPKVGIVYNYANASDLPAKALVDAGYDGIVSAGVGNGNLYKSVFDTLATAAKTGTAVVRSSRVPTGATTQDAEVDDAKYGFVASGTLNPQKARVLLQLALTQTKDPQQIQQIFNQY
Consider B1, for which the “expression of cell cycle genes (Cdk1, Mki67, Aukrb)” value in the assay with cultured ACMs [1] is recorded as “diminished”. Further, the cell death result in the assay on cultured ACMs [2] is on record as “did not induce more cell death”.
